Source: patent US20040266849A1, “Therapeutic compounds for treating dyslipidemic conditions” (priority 2004, published 2004)

Tested on: ABCA1 mRNA
Experiment: Induction of ABCA1 mRNA levels in human primary macrophages
Format: cell-based
Details: Primary macrophage, 18 h + 6 h, vs DMSO control, read-out: Fold Induction of ABCA1 mRNA (Mean ± SEM)
Description: Induction of ABCA1 mRNA levels
Human Primary Macrophages were used to test the ability of LXR ligands to induce the expression of ABCA1 mRNA. The collection and purification of monocytes and their subsequent differentiation into macrophages by culturing in Teflon jars for 7-9 days was performed according to Wright and Silverstein J. Exp. Med. V156, October 1982 pp. 1149-1164. Cells were harvested from the Teflon jars and seeded into appropriate vessels in RPMI1640 plus 12% human serum and antibiotics. Cells were allowed to recover overnight before treatment. Treatment was for 18 hours with the described compounds, followed by a re-application of fresh compounds for an additional 6 hours in DMEM minus Phenol Red with 10% charcoal stripped FCS. The cells were harvested and total RNA prepared using the phenol/guanidine isothiocyanate method as supplied and described by Molecular Research Center, Inc. (TRI REAGENT® Cat. No. TR 118). ABCA1 mRNA levels in the total RNA were measured using the TaqMan® mRNA quantitation system, following protocols published by the manufacturer (Perkin-Elmer). The oligonucleotide PCR primers used to detect ABCA1 were: […]
The oligonucleotide probe used was:
ABCA1 mRNA levels in each sample were normalized to the mRNA levels for the 23 kDa highly basic protein. The oligonucleotide PCR primers used to detect the 23 kDa highly basic protein were: […]

Row | Compound | fold induction at 0.1 µM (0.1 μM) | fold induction at 1 µM (1.0 μM) | fold induction at 10 µM
1 | CCCc1c(OCCCN(C)C(=O)CC(C)(C)CC(=O)O)ccc2c(C(F)(F)F)noc12 [Compound (3d)] | 0.9 ± 0.2 | 3.3 ± 0.3 | 13.6 ± 1.1
2 | CC(C)CC[C@@H](O)[C@@H](C)[C@H]1CC[C@H]2[C@@H]3CC=C4C[C@@H](O)CC[C@]4(C)[C@H]3CC[C@]12C [22-(R)-hydroxycholesterol, reference compound] |  |  | 8 ± 1.37
